Assays:
HCT-116 cell line = test: Inhibition of cell growth, MTT tetrazolium salt assay; type: cell-based; settings: HCT-116, at 0.25 μM
In short: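 HCT-116 cells in McCoy's 5A were dosed 4 h after plating with compounds in 0.5% DMSO and grown 3–5 days at 37 °C. Then 0.2 mg/mL MTT was added for 4 h and formazan absorbance read at 540 nm. IC50/IC90 came from semi-log plots against DMSO-only controls.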

CDK2/cyclin A = target: T1, CDK2/cyclin A (Homo sapiens, UniProt P24941); test: Inhibition of CDK2/cyclin A retinoblastoma kinase activity (Ki; % inhibition); type: biochemical; settings: at 0.03 μM
T1 construct: made in house; host or cells: CDK2: insect cells (baculovirus); cyclin A: E. coli
In short: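 Radiometric filter assay of CDK2/proteolyzed cyclin A (baculovirus-expressed human CDK2, 10 or 19 nM) phosphorylating an Rb fragment with 25 μM [³²P/³³P]ATP in pH 7.4 HEPES, 2% DMSO, at 30 °C for 60 or 75 min under initial-rate conditions. Library compounds screened at 30 nM for % inhibition; apparent Ki from concentration series fit to competitive or tight-binding inhibition equations.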

human CDK4/cyclin D3 = target: T2, human CDK4/cyclin D3 (Homo sapiens, UniProt P11802); test: Inhibition of CDK4/cyclin D retinoblastoma kinase activity (Ki; % inhibition); type: biochemical; settings: at 0.03 μM
T2 construct: made in house; host or cells: insect cells co-infected with baculovirus vectors
In short: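 Insect-cell-expressed CDK4 with truncated cyclin D3 (1-264), 5 nM, phosphorylating His-tagged Rb fragment (386-928) with 25 μM [32/33P]ATP at pH 7.4, 30 °C, 20 min (60 min for tight binders). Filter capture, phosphorimager read; % inhibition at 30 nM compound, Ki from competitive or tight-binding fits.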

T2 sequence (P11802 whole entry): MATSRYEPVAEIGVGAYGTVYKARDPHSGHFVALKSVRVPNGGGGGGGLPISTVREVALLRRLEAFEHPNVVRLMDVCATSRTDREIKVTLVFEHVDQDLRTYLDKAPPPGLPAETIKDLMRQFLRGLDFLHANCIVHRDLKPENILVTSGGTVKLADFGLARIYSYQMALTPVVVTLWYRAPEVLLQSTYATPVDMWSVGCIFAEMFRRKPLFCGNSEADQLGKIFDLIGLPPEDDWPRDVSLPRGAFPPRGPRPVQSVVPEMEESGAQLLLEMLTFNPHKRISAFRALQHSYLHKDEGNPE
T2 sequence (P30281 1-264 partner limits assumed): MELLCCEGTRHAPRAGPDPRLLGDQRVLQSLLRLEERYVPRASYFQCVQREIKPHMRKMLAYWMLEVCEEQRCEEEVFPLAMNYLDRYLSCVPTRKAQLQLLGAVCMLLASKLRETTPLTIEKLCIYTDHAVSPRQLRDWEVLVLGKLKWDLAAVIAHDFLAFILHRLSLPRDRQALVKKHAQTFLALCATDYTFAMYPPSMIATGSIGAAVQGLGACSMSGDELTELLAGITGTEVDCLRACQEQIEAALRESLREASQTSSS

Compound | HCT-116 % Inhibition at 0.25 μM (HCT-116 cell line) [%] | CDK2 % Inhibition at 0.03 μM (CDK2/cyclin A) [%] | CDK4 % Inhibition at 0.03 μM (human CDK4/cyclin D3) [%]
NC(=O)C1CCCN(C(=O)c2ccc(Nc3nc(N)c(C(=O)c4c(F)cccc4F)s3)cc2)C1 (stereo not drawn) [Example G41] | 50 | 11 | 10
CN(CC1OCCO1)C(=O)c1ccc(Nc2nc(N)c(C(=O)c3c(F)cccc3F)s2)cc1 [Example G42] | 54 | 10 | 7
NC(=O)C1CCN(C(=O)c2ccc(Nc3nc(N)c(C(=O)c4c(F)cccc4F)s3)cc2)CC1 [Example G43] | 62 | 5 | 12
Cc1ccc(NC(=O)c2ccc(Nc3nc(N)c(C(=O)c4c(F)cccc4F)s3)cc2)c(Cl)c1 [Example G44] | 72 | 8 | 14
COc1ccc(NC(=O)c2ccc(Nc3nc(N)c(C(=O)c4c(F)cccc4F)s3)cc2)c(OC)c1 [Example G45] | 89 | 16 | 16
CCOC(=O)c1ccccc1NC(=O)c1ccc(Nc2nc(N)c(C(=O)c3c(F)cccc3F)s2)cc1 [Example G46] | 58 | 4 | 11
Nc1nc(Nc2ccc(C(=O)N3CCCC3)cc2)sc1C(=O)c1c(F)cccc1F [Example G47] | 53 | −15 | 6
Nc1nc(Nc2ccc(C(=O)N3CCCC(CO)C3)cc2)sc1C(=O)c1c(F)cccc1F (stereo not drawn) [Example G48] | 50 | 1 | 3
Nc1nc(Nc2ccc(C(=O)N3CCCC(O)C3)cc2)sc1C(=O)c1c(F)cccc1F (stereo not drawn) [Example G49] | 57 | 7 | 4
COC(=O)CN(C)C(=O)c1ccc(Nc2nc(N)c(C(=O)c3c(F)cccc3F)s2)cc1 [Example G50] | 61 | 9 | 10
CC(C)c1ccccc1NC(=O)c1ccc(Nc2nc(N)c(C(=O)c3c(F)cccc3F)s2)cc1 [Example G51] | 89 | 9 | −1
Nc1nc(Nc2ccc(C(=O)Nc3ccc4c(c3)OCO4)cc2)sc1C(=O)c1c(F)cccc1F [Example G52] | 65 | 10 | 5
Nc1nc(Nc2ccc(C(=O)Nc3ccccc3CO)cc2)sc1C(=O)c1c(F)cccc1F [Example G53] | 89 | 17 | 6
COc1ccc(NC(=O)c2ccc(Nc3nc(N)c(C(=O)c4c(F)cccc4F)s3)cc2)cc1 [Example G54] | 86 | 8 | 9
Nc1nc(Nc2ccc(C(=O)N3CCC(O)C3)cc2)sc1C(=O)c1c(F)cccc1F (stereo not drawn) [Example G55] | 57 | 22 | 16
Nc1nc(Nc2ccc(C(=O)N3CCC(O)CC3)cc2)sc1C(=O)c1c(F)cccc1F [Example G56] | 59 | 24 | 10
CN(C)CCN(C)C(=O)c1ccc(Nc2nc(N)c(C(=O)c3c(F)cccc3F)s2)cc1 [Example G57] | 51 | 17 | 19
CN(CCc1ccncc1)C(=O)c1ccc(Nc2nc(N)c(C(=O)c3c(F)cccc3F)s2)cc1 [Example G58] | 53 | 19 | 17
COc1ccc(NC(=O)c2ccc(Nc3nc(N)c(C(=O)c4c(F)cccc4F)s3)cc2)cc1Cl [Example G59] | 53 | 25 | 3
N#Cc1cccc(NC(=O)c2ccc(Nc3nc(N)c(C(=O)c4c(F)cccc4F)s3)cc2)c1 [Example G60] | 66 | 12 | 18
COC(=O)c1ccc(NC(=O)c2ccc(Nc3nc(N)c(C(=O)c4c(F)cccc4F)s3)cc2)cc1 [Example G61] | 58 | 19 | 19
